# Patent US20040029129A1, “Identification of essential genes in microorganisms” (priority 2001, published 2004)
# Columns and labels:
# [1] = tested on: cells which overexpress the defB gene product; experiment: Growth of cells overexpressing the defB gene in the presence of antibiotics; format: cell-based; details: FIG. 16
# [2] = tested on: cells which overexpress the folA gene product; experiment: Growth of cells overexpressing the folA gene in the presence of antibiotics; format: cell-based; details: for resistance conferred by overexpression of the folA gene: FIG. 15
# [3] = tested on: overexpression of the fabI gene; experiment: Growth of cells overexpressing the fabI gene in the presence of antibiotics; format: cell-based; details: FIG. 14
# [4] = tested on: overexpression of the fabF gene (β keto-acyl carrier protein synthase); experiment: Growth of cells overexpressing the fabF gene in the presence of antibiotics; format: cell-based; details: FIG. 17
# [5] = tested on: Staphylococcus aureus cells overexpressing a gene product required for proliferation; experiment: Growth of strains overexpressing a proliferation-required gene (XylT5 promoter) at elevated antibiotic concentrations; format: cell-based; details: for resistance conferred by overexpression of the defB gene: defB (peptide deformylase) overexpressed, FIG. 16; for resistance conferred by overexpression of the fabF gene: fabF (β keto-acyl carrier protein synthase II) overexpressed, FIG. 17; for resistance conferred by overexpression of the fabI gene: fabI (enoyl-acyl carrier protein reductase) overexpressed, FIG. 14; for resistance conferred by overexpression of the folA gene: folA (dihydrofolate reductase) overexpressed, FIG. 15
# [6] = tested on: Staphylococcus aureus cells containing antisense to the Beta subunit of DNA gyrase (S1M10000001F08); experiment: Antibiotic potency in cells with xylose-induced antisense to the Beta subunit of DNA gyrase; format: cell-based; details: 12 mM xylose versus 0 mM xylose; FIG. 10
# [7] = tested on: E. coli transformed with IPTG-inducible antisense clones; experiment: Cell-based assay using antisense complementary to genes encoding ribosomal proteins (antibiotic sensitivity with and without IPTG); details: with IPTG versus without IPTG; for Sensitivity to antibiotic of cells transcribing antisense to protein synthesis genes: AS-rplL, AS-rplW, AS-rplL/J and other protein synthesis gene clones
# [8] = tested on: Strains of Staphylococcus aureus containing plasmids encoding antisense nucleic acids; experiment: Selective disappearance of amplification products of strains underexpressing the antibiotic's target (mixed antisense strains); format: cell-based; details: rich medium
# [9] = tested on: mixture of nine S. aureus strains overexpressing fabF, defB, folA, fabI, ileS, fusA, gyrB, murA, rpoB; experiment: Selection of a strain overexpressing the target gene product from a mixture of nine overexpressing strains; format: cell-based; details: folA gene; at least 60 colonies
smiles,measurement,setting,value
Oc1cc(Cl)ccc1Oc1ccc(Cl)cc1Cl [triclosan],resistance conferred by overexpression of the defB gene,[1],does not confer resistance
same,resistance conferred by overexpression of the folA gene,[2],does not confer resistance
same,resistance conferred by overexpression of the fabI gene,[3],confers resistance
same,resistance conferred by overexpression of the fabF gene,[4],does not confer resistance
same,resistance conferred by overexpression of the defB gene,[5],did not confer resistance
same,resistance conferred by overexpression of the fabF gene,[5],did not confer resistance
same,resistance conferred by overexpression of the fabI gene,[5],conferred resistance
same,resistance conferred by overexpression of the folA gene,[5],did not confer resistance
CN[C@H](CC(C)C)C(=O)N[C@H]1C(=O)N[C@@H](CC(N)=O)C(=O)N[C@H]2C(=O)N[C@H]3C(=O)N[C@H](C(=O)N[C@H](C(=O)O)c4cc(O)cc(O)c4-c4cc3ccc4O)[C@H](O)c3ccc(c(Cl)c3)Oc3cc2cc(c3O[C@@H]2O[C@H](CO)[C@@H](O)[C@H](O)[C@H]2O[C@H]2C[C@](C)(N)[C@H](O)[C@H](C)O2)Oc2ccc(cc2Cl)[C@H]1O [Vancomycin],Potency in induced cells as compared to uninduced cells,[6],not significantly different
CC(=O)O[C@H]1C[C@@]2(C)[C@@H](C[C@@H](O)[C@H]3[C@@]4(C)CC[C@@H](O)[C@@H](C)[C@@H]4CC[C@@]32C)/C1=C(\CCC=C(C)C)C(=O)O [Fusidic acid],Potency in induced cells as compared to uninduced cells,[6],not significantly different
CO/N=C(\C(=O)N[C@@H]1C(=O)N2C(C(=O)O)=C(COC(C)=O)CS[C@H]12)c1csc(N)n1 [Cefotaxime],Potency in induced cells as compared to uninduced cells,[6],not significantly different
CO[C@@H]1[C@@H](OC(N)=O)[C@@H](O)[C@H](Oc2ccc3c(O)c(NC(=O)c4ccc(O)c(CC=C(C)C)c4)c(=O)oc3c2C)OC1(C)C [novobiocin],Potency in induced cells as compared to uninduced cells,[6],significantly different
CO[C@@]1(NC(=O)Cc2cccs2)C(=O)N2C(C(=O)O)=C(COC(N)=O)CS[C@@H]21 [Cefoxitin],Potency in induced cells as compared to uninduced cells,[6],not significantly different
NC[C@H]1O[C@H](O[C@H]2[C@H](O)[C@@H](O[C@H]3O[C@H](CO)[C@@H](O)[C@H](N)[C@H]3O)[C@H](N)C[C@@H]2N)[C@H](N)C[C@@H]1O [Tobramycin],Potency in induced cells as compared to uninduced cells,[6],not significantly different
CC[C@H]1OC(=O)[C@H](C)[C@@H](O[C@H]2C[C@@](C)(OC)[C@@H](O)[C@H](C)O2)[C@H](C)[C@@H](O[C@@H]2O[C@H](C)C[C@H](N(C)C)[C@H]2O)[C@](C)(O)C[C@@H](C)C(=O)[C@H](C)[C@@H](O)[C@]1(C)O [Erythromycin],Sensitivity to antibiotic of cells transcribing antisense to genes not involved in protein synthesis,"[7]; AS-atpB/E, AS-visC, AS-elaD, AS-yohH",do not
same,Sensitivity to antibiotic of cells transcribing antisense to protein synthesis genes,[7],increased sensitivity
C/C(=C\C(=O)OCCCCCCCCC(=O)O)C[C@@H]1OC[C@H](C[C@@H]2O[C@H]2[C@@H](C)[C@H](C)O)[C@@H](O)[C@H]1O [mupriocin],IC50 (middle concentration used),[8],8.6 µg/mL
C/C=C/C/C=C/CCC(=O)[C@H]1O[C@H]1C(N)=O [cerulenin],resistance conferred by overexpression of the defB gene,[1],does not confer resistance
same,resistance conferred by overexpression of the folA gene,[2],does not confer resistance
same,resistance conferred by overexpression of the fabI gene,[3],does not confer resistance
same,resistance conferred by overexpression of the fabF gene,[4],conferred resistance
same,resistance conferred by overexpression of the defB gene,[5],did not confer resistance
same,resistance conferred by overexpression of the fabF gene,[5],conferred resistance
same,resistance conferred by overexpression of the fabI gene,[5],did not confer resistance
same,resistance conferred by overexpression of the folA gene,[5],did not confer resistance
same,IC50,[8]; read-out: IC50 (middle concentration used),9 µg/mL
COc1cc(Cc2cnc(N)nc2N)cc(OC)c1OC [trimethoprim],resistance conferred by overexpression of the defB gene,[1],does not confer resistance
same,resistance conferred by overexpression of the folA gene,[2],confers resistance
same,growth of cells overexpressing the folA gene product in presence of antibiotic,"[2]; at appropriate concentrations of inducer, FIG. 13",able to grow at elevated concentrations
same,resistance conferred by overexpression of the fabI gene,[3],does not confer resistance
same,resistance conferred by overexpression of the fabF gene,[4],does not confer resistance
same,Potency in induced cells as compared to uninduced cells,[6],not significantly different
same,resistance conferred by overexpression of the defB gene,[5],did not confer resistance
same,resistance conferred by overexpression of the fabF gene,[5],did not confer resistance
same,resistance conferred by overexpression of the fabI gene,[5],did not confer resistance
same,resistance conferred by overexpression of the folA gene,[5],conferred resistance
same,Plasmids from colonies which grew in the presence of the antibiotic that contained the target gene,[9],81%
CCC[C@@H]1C[C@@H](C(=O)N[C@@H]([C@H]2O[C@H](SC)[C@H](O)[C@@H](O)[C@H]2O)[C@@H](C)O)N(C)C1 [Lincomycin],Potency in induced cells as compared to uninduced cells,[6],not significantly different
CCn1cc(C(=O)O)c(=O)c2ccc(C)nc21 [Nalidixic acid],Sensitivity to antibiotic of cells transcribing antisense to protein synthesis genes,[7],does not show increased sensitivity
